Data on twelve compounds can be found in ChEMBL document CHEMBL1140726, “Discovery and biological evaluation of 5-aryl-2-furfuramides, potent and selective blockers of the Nav1.8 sodium channel with efficacy in models of neuropathic and inflammatory pain” (J Med Chem, 2008).

Broadly, the IC50 is the midpoint of a concentration-inhibition curve. What is called inhibition is the percentage by which the read-out fell short of the control.

For data set [1], the target named is Sodium channel protein type 10 subunit alpha (Mus musculus, UniProt Q6QIY3). As to the kind of experiment: Inhibition of mouse recombinant Nav 1.8 channel expressed in HEK293 cells by isotopic efflux assay. The data set is classed as cell-based.
Sequence of Sodium channel protein type 10 subunit alpha (Mus musculus, UniProt Q6QIY3) (Q6QIY3 whole entry): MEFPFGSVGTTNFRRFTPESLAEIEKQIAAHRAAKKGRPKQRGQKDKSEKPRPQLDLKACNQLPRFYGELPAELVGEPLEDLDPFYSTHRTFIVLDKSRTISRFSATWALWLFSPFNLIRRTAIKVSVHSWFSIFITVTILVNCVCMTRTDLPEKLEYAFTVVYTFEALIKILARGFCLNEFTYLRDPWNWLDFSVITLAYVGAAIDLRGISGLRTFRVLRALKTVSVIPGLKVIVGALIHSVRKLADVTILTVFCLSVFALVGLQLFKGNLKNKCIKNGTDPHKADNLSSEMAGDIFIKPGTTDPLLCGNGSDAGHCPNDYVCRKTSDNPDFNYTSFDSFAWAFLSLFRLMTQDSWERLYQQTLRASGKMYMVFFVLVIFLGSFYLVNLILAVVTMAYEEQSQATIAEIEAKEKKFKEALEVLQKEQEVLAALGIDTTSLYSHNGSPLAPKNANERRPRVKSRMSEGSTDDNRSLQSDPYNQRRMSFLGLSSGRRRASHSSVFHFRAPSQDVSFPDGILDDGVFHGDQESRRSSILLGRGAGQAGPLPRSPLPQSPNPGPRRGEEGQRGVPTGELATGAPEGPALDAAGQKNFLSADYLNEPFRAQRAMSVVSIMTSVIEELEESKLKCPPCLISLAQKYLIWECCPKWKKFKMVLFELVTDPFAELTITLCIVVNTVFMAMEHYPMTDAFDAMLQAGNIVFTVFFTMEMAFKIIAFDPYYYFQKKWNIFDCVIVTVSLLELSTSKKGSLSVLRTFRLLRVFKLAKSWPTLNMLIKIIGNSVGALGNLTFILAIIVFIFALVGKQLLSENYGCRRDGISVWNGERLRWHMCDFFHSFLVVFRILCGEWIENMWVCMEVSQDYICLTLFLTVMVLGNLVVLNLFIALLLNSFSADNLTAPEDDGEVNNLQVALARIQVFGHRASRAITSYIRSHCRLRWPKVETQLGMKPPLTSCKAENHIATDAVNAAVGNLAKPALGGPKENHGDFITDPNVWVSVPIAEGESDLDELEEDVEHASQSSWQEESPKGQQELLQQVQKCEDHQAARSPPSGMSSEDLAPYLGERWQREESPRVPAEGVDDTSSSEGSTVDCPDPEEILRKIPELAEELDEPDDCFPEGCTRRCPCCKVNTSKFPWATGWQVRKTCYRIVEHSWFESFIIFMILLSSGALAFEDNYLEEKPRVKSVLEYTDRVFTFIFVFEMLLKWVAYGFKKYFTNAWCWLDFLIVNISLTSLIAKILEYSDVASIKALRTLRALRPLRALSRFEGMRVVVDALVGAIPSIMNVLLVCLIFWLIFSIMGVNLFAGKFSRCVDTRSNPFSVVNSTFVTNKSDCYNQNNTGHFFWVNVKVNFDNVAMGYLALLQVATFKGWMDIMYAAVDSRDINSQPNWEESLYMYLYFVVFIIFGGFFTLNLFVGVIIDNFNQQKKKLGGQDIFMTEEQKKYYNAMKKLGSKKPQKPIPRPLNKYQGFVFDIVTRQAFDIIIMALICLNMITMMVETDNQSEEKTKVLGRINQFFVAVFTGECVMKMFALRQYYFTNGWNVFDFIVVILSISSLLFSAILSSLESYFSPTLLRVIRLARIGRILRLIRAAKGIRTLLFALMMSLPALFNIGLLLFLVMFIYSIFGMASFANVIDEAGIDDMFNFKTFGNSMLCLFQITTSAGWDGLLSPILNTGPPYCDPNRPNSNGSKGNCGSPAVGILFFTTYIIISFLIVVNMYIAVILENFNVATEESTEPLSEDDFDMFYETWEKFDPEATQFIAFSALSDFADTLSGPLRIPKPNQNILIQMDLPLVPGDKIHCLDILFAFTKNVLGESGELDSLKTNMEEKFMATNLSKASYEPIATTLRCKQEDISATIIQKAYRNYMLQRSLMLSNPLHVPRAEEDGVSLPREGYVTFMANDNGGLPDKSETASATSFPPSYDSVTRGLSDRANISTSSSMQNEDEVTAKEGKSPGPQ
Data set [2] has as its target T1, Sodium channel protein type 10 subunit alpha (Homo sapiens, UniProt Q9Y5Y9). In words: Activity at human recombinant Nav 1.8 channel expressed in HEK293 cells in resting state with prepulse voltage of -100 mV assessed as blockade of TTx-resistant sodium current at 0.3 uM. The data set is classed as cell-based.
Data set [3] concerns the target Sodium channel protein type 9 subunit alpha (Homo sapiens) (UniProt Q15858). In words: Inhibition of human Nav1.7 channel at 3 uM.
Data set [4] is described as follows: Activity at rat dorsal root ganglion in inactivated state with prepulse voltage of -40 mV assessed as blockade of TTx-resistant sodium current at 0.03 uM by whole-cell patch clamp technique. The data set is classed as functional. (In general: Patch clamp records ionic current or voltage across a cell membrane.)
The target of data set [5] is T1, Sodium channel protein type 10 subunit alpha. In words: Activity at human recombinant Nav 1.8 channel expressed in HEK293 cells in inactivated state with prepulse voltage of -40 mV assessed as blockade of TTx-resistant sodium current at 0.3 uM. It counts as cell-based.
For data set [6] the target is unchanged. As to the kind of experiment: Inhibition of human recombinant Nav 1.8 channel expressed in HEK293 cells at 0.3 uM. The data set is classed as cell-based.
Data set [7] has the same target. As to the kind of experiment: Activity at human recombinant Nav 1.8 channel expressed in HEK293 cells in inactivated state with prepulse voltage of -40 mV assessed as blockade of TTx-resistant sodium current at 0.03 uM. The data set is classed as cell-based.
A short description of data set [8]: Activity at rat dorsal root ganglion in inactivated state with prepulse voltage of -40 mV assessed as blockade of TTx-resistant sodium current at 0.003 uM by whole-cell patch clamp technique. It counts as functional.
The target of data set [9] is Sodium channel protein type 3 subunit alpha (Homo sapiens) (UniProt Q9NY46). As to the kind of experiment: Inhibition of human Nav1.3 channel at 3 uM.
Data set [10] has as its target Sodium channel protein type 2 subunit alpha (Homo sapiens) (UniProt Q99250). As to the kind of experiment: Inhibition of human Nav1.2 channel at 3 uM.
Data set [11] has as its target Voltage-gated inwardly rectifying potassium channel KCNH2 (Homo sapiens, UniProt Q12809). As to the kind of experiment: Inhibition of hERG potassium channel expressed in CHO cells by isotope efflux assay. For orientation: The hERG channel carries a current that helps repolarise heart muscle cells.
Data set [12] can be described thus: Activity at rat dorsal root ganglion in resting state with prepulse voltage of -100 mV assessed as blockade of TTx-resistant sodium current at 0.003 uM by whole-cell patch clamp technique. The data set is classed as functional.
Data set [13] deals with T1, Sodium channel protein type 10 subunit alpha. In words: Activity at human recombinant Nav 1.8 channel expressed in HEK293 cells in resting state with prepulse voltage of -100 mV assessed as blockade of TTx-resistant sodium current at 0.03 uM. The data set is classed as cell-based.
Data set [14] is described as follows: Activity at rat dorsal root ganglion in resting state with prepulse voltage of -100 mV assessed as blockade of TTx-resistant sodium current at 0.3 uM by whole-cell patch clamp technique. It counts as functional.
Data set [15] has as its target T1, Sodium channel protein type 10 subunit alpha. As to the kind of experiment: Inhibition of human recombinant Nav 1.8 channel expressed in HEK293 cells at 0.03 uM. It counts as cell-based.
For data set [16], the target named is T2, Nav1.5 (sodium channel protein type 5 subunit alpha) (Homo sapiens, UniProt Q14524). As to the kind of experiment: Inhibition of human Nav1.5 channel at 3 uM.
T2 sequence (Q14524 whole entry): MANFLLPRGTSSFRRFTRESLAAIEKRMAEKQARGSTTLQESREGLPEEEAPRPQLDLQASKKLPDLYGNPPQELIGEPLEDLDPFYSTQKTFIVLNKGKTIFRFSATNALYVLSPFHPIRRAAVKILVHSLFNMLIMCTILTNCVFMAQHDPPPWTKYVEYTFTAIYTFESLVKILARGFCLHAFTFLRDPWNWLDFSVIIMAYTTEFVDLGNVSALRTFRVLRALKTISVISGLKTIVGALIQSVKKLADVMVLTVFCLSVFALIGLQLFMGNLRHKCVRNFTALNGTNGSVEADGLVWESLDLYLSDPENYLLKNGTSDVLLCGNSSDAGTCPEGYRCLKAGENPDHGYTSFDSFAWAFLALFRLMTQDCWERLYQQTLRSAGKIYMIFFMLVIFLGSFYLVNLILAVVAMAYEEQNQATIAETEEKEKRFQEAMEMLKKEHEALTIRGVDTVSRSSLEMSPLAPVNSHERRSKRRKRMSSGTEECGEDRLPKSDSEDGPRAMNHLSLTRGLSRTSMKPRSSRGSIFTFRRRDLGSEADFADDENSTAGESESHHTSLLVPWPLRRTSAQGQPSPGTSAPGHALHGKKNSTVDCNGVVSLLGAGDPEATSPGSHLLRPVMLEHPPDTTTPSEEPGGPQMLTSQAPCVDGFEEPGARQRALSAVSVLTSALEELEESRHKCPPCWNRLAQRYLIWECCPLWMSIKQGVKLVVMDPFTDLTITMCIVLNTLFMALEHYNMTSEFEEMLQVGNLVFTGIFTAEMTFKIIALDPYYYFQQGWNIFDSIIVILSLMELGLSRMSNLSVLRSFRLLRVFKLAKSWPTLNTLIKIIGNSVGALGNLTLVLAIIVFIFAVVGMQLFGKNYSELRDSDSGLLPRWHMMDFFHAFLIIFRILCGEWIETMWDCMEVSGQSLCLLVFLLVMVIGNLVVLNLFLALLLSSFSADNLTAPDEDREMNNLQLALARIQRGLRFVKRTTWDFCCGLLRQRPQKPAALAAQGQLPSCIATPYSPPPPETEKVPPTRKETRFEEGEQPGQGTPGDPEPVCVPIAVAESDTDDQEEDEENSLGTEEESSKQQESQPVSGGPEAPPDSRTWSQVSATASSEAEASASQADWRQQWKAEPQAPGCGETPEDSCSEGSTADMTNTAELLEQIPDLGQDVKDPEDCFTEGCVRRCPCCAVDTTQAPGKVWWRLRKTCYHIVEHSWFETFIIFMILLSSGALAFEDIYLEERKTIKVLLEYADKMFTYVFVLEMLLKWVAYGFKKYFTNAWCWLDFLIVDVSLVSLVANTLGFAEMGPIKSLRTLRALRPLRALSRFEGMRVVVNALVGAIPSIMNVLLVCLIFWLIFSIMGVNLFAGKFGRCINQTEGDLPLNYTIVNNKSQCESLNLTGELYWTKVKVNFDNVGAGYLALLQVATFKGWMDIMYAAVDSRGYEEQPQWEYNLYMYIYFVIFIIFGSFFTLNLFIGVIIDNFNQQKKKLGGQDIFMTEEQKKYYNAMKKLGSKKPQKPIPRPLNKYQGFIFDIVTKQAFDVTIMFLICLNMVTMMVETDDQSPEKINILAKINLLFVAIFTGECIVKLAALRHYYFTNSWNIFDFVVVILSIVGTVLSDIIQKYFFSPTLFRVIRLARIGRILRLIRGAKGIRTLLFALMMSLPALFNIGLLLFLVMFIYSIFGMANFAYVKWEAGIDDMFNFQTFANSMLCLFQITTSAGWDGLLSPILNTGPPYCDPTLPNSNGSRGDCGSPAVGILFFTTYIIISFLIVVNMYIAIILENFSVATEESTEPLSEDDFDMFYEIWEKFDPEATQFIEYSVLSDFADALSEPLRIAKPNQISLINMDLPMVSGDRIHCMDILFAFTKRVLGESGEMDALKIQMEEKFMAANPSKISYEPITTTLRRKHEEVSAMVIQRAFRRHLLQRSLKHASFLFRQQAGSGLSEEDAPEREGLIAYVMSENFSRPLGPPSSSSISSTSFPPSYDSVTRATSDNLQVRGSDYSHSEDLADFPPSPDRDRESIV
Data set [17] addresses T2, Nav1.5 (sodium channel protein type 5 subunit alpha). In words: Inhibition of human Nav1.5 channel at 0.3 uM.
For data set [18] the target is unchanged. As to the kind of experiment: Inhibition of human Nav1.5 channel at 0.03 uM.
Data set [19] addresses Sodium channel protein type 2 subunit alpha (Homo sapiens) (UniProt Q99250). In words: Inhibition of human Nav1.2 channel at 0.03 uM.
For data set [20], the target named is T1, Sodium channel protein type 10 subunit alpha. In words: Inhibition of human recombinant Nav 1.8 channel expressed in HEK293 cells at 0.001 uM. It counts as cell-based.
For data set [21] the target is unchanged. In words: Activity at human recombinant Nav 1.8 channel expressed in HEK293 cells in resting state with prepulse voltage of -100 mV assessed as blockade of TTx-resistant sodium current at 0.001 uM. The data set is classed as cell-based.
Data set [22] in a line: Activity at rat dorsal root ganglion in resting state with prepulse voltage of -100 mV assessed as blockade of TTx-resistant sodium current at 0.03 uM by whole-cell patch clamp technique. The data set is classed as functional.
Data set [23] concerns the target Sodium channel protein type 9 subunit alpha (Homo sapiens) (UniProt Q15858). In words: Inhibition of human Nav1.7 channel at 0.3 uM.
For data set [24], the target named is T1, Sodium channel protein type 10 subunit alpha. As to the kind of experiment: Activity at human recombinant Nav 1.8 channel expressed in HEK293 cells in inactivated state with prepulse voltage of -40 mV assessed as blockade of TTx-resistant sodium current at 0.001 uM. The data set is classed as cell-based.
The target in data set [25] is Sodium channel protein type 3 subunit alpha (Homo sapiens) (UniProt Q9NY46). In words: Inhibition of human Nav1.3 channel at 0.3 uM.
Data set [26] addresses Sodium channel protein type 2 subunit alpha (Homo sapiens) (UniProt Q99250). In words: Inhibition of human Nav1.2 channel at 0.3 uM.
The target is the same in data set [27]. In words: Inhibition of human Nav1.2 channel at 0.1 uM.
Data set [28] deals with T1, Sodium channel protein type 10 subunit alpha. As to the kind of experiment: Inhibition of human recombinant Nav 1.8 channel expressed in HEK293 cells at 0.003 uM. The data set is classed as cell-based.
In data set [29] the target is T2, Nav1.5 (sodium channel protein type 5 subunit alpha). As to the kind of experiment: Inhibition of human Nav1.5 channel at 0.1 uM.
Data set [30] has the same target. In words: Inhibition of human Nav1.5 channel at 1 uM. The following applies: human.
The target in data set [31] is T1, Sodium channel protein type 10 subunit alpha. As to the kind of experiment: Activity at human recombinant Nav 1.8 channel expressed in HEK293 cells in inactivated state with prepulse voltage of -40 mV assessed as blockade of TTx-resistant sodium current at 0.003 uM. The data set is classed as cell-based.
Data set [32] is described as follows: Activity at rat dorsal root ganglion in resting state with prepulse voltage of -100 mV assessed as blockade of TTx-resistant sodium current at 0.1 uM by whole-cell patch clamp technique. It counts as functional.
The nature of data set [33]: Activity at rat dorsal root ganglion in inactivated state with prepulse voltage of -40 mV assessed as blockade of TTx-resistant sodium current at 0.1 uM by whole-cell patch clamp technique. It counts as functional.
Data set [34] has as its target Sodium channel protein type 2 subunit alpha (Homo sapiens) (UniProt Q99250). In words: Inhibition of human Nav1.2 channel at 1 uM.
The nature of data set [35]: Activity at rat dorsal root ganglion in inactivated state with prepulse voltage of -40 mV assessed as blockade of TTx-resistant sodium current at 0.3 uM by whole-cell patch clamp technique. It counts as functional.
Data set [36] deals with T1, Sodium channel protein type 10 subunit alpha. In words: Activity at human recombinant Nav 1.8 channel expressed in HEK293 cells in resting state with prepulse voltage of -100 mV assessed as blockade of TTx-resistant sodium current at 0.003 uM. It counts as cell-based.

Sequence of Voltage-gated inwardly rectifying potassium channel KCNH2 (Q12809 whole entry): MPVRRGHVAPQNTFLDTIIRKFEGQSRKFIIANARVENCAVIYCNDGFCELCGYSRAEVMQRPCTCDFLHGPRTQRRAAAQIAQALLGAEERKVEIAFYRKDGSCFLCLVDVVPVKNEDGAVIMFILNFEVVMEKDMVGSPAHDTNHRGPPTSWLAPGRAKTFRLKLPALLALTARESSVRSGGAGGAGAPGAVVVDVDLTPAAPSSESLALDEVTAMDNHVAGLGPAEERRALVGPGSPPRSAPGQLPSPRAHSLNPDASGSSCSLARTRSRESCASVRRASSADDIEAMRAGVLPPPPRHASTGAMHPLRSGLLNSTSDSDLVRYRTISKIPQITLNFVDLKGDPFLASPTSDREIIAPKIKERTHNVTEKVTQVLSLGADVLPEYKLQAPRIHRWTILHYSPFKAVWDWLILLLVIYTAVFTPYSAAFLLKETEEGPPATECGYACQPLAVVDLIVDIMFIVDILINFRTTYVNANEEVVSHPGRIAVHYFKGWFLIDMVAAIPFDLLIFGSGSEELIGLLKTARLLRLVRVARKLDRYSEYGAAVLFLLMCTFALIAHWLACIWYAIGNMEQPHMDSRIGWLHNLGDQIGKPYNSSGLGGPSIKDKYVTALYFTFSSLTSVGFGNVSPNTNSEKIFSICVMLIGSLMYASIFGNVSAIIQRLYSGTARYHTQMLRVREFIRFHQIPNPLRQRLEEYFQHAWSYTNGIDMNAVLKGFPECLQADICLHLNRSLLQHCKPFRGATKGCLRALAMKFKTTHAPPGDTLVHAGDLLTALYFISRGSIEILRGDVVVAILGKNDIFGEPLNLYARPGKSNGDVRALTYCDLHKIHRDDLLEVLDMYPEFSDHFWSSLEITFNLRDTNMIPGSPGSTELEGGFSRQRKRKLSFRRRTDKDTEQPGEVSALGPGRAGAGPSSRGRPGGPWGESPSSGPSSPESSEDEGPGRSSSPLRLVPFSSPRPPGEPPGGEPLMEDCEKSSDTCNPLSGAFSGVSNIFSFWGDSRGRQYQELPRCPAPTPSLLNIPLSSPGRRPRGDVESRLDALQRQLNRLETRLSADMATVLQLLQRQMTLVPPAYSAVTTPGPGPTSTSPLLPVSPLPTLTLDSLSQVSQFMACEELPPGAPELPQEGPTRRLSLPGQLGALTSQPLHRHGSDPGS

For the compound `Cc1cccc(N(C)C(=O)c2ccc(-c3ccc(Cl)cc3)o2)c1`, in [1], the half-inhibitory concentration (IC50) came out at 3.4 µM.
With `Cc1cccc(NC(=O)c2ccc(-c3cccc(C#N)c3)o2)c1`, the 50% inhibitory concentration (IC50) in data set [1] turned out to be 30 µM.
With `O=C(c1ccc(-c2ccc(Cl)cc2)o1)N1CCOCC1`, the IC50 in data set [1] is more than 30 µM.
On to `CN1CCCc2cc(NC(=O)c3ccc(-c4ccc(Cl)cc4)o3)ccc21`, for which the inhibition in data set [2] stood at 66%; in data set [3], 44%; in [5] it was 70%; in [6], 70%; in [7], 56%; in data set [9], 37%. In addition, the results for the inhibition in [10], in data set [13] and in data set [15] were 38%, 27% and 55%, respectively. Moreover, the inhibition at 0.03 µM in data set [4] was determined as 79%. Moreover, the inhibition at 0.003 µM came to 44% in [8] and 31% in data set [12]. Further, the values for the IC50 in [11] and in [1] were 5.3 µM and 2.9 µM, respectively. Further, the inhibition at 0.3 µM in data set [14] stood at 28%. In addition, 3 µM produced 71% inhibition in data set [16].
As to `Cc1cc(NC(=O)c2ccc(-c3ccc(Cl)cc3)o2)ccn1`, in data set [1], the half-inhibitory concentration (IC50) amounted to 2.5 µM.
Regarding `Cc1cccc(NC(=O)c2coc(-c3ccc(Cl)cc3)c2)c1`, in data set [1], the concentration for half-maximal inhibition (IC50) was 20 µM.
In the case of `Cc1cccc(N/C(=N/C#N)c2ccc(-c3ccc(Cl)cc3)o2)c1`, in [17], 0.3 µM produced 69% inhibition. For the same compound, the inhibition at 0.03 µM in data set [4] came out at 71%; in [18], 32%; in data set [22], 45%. For the same compound, the inhibition turned out to be 99% in data set [7]; 91% in [19]; 76% in [20]; 46% in [21]; 70% in data set [23]; 94% in data set [13]. Besides, the inhibition came out at 76% in data set [24], 24% in data set [25], 94% in data set [26] and 99% in [15]. Moreover, the inhibition at 0.003 µM in [8] was determined as 51%; in [12], 22%. Further, the IC50 was more than 30 µM in data set [11] and 0.03 µM in [1].
As for `O=C(Nc1ccc2cc[nH]c2c1)c1ccc(-c2ccc(Cl)cc2)o1`, the IC50 in data set [1] is 3.1 µM.
Regarding `CCOc1ccc(-c2ccc(C(=O)Nc3cccc(C)c3)o2)cc1`, in data set [1], the IC50 came out at 0.43 µM.
As to `CN(C)C1CCN(C(=O)c2ccc(-c3ccc(Cl)cc3)o2)CC1`, the half-maximal inhibitory concentration (IC50) in data set [1] came out at 5.2 µM.
As for `Cc1cccc(NC(=O)c2ccc(-c3ccc(OC(F)(F)F)cc3)o2)c1`, the inhibition in data set [27] stood at 47%; in data set [28] it was 73%; in data set [31], 73%; in data set [21] it was 7%; in data set [34], 84%; in data set [24], 40%. Besides, in data set [36], the inhibition was found to be 33%. For the same compound, the inhibition at 0.1 µM worked out at 52% in data set [29], 25% in data set [32] and 40% in data set [33]. The inhibition at 1 µM in data set [30] came to 87%. In addition, the IC50 was more than 30 µM in data set [11] and 0.29 µM in data set [1]. Moreover, the values for the inhibition at 0.3 µM in [35] and in data set [14] were 63% and 30%, respectively.
Regarding `O=C(NCCc1ccccc1Cl)c1ccc(-c2ccc(Cl)cc2)o1`, the IC50 in [1] came out at 1.9 µM.
